As usually defined, the IC50 is the concentration at which inhibition is half-maximal.

One data set relates to K562 cells. The data set can be described thus: MTT growth inhibition of K562 cells by irradiated aliquots. The data set is classed as cell-based, human. The procedure: An MTT assay was used to evaluate the ability of aliquots of the activated analogues, which were removed at time intervals, to inhibit the growth of chronic human histiocytic leukaemia K562 cells in culture. Following treatment of cells with a range of drug doses, cells were transferred to 96-well microtitre plates, 10^4 cells per well, 8 wells per sample. Plates were incubated at 37° C. in a humidified atmosphere containing 5% CO2. The assay is based on the ability of viable cells to reduce a yellow soluble tetrazolium salt 3-(4,5-dimethylthiazolyl)-2,5-diphenyltetrazolium bromide (MTT), to an insoluble purple formazan precipitate. Following incubation of the plates for 4 days (to allow control cells to increase 10-fold in number), 20 μL of a 5 mg/mL solution of MTT in phosphate-buffered saline was added to each well and the plates were incubated for a further 5 hours. The plates were then centrifuged for 5 minutes at 300 g and the bulk of the medium was removed from the cell pellet. DMSO (200 μL) was added to each well, and the samples agitated to ensure complete mixing. The optical density was then measured at a wavelength of 550 nm on a Titertek Multiscan ELISA plate reader and expressed as a percentage of the control optical density. For each curve, an IC50 value was read as the dose required to reduce the final optical density to 50% of the control value.

Data set [1] in a line: UVA (365 nm) cleavage of photolabile NVOC group monitored by HPLC. Format: physicochemical. Here is the method: This experiment involved the irradiation of compound 11, see example 3, in DMF at a concentration of 1 mM using a Stratagene UVA Crosslinker(365 nm). Small aliquots (100 μL) were removed at 30 minutes, 1 hour, 2 hours and 3 hours and the cleavageof the photolabile NVOC group was monitored by HPLC, using a Waters C4, 300 angstrom reversed phase column and a mobile phase of 50% methanol/50% water. Compound 11 has a retention time of 11.25 minutes and upon radiation produced a new peak with a retention time of 8.58 minutes. Authentic benzyl DC-81 has an identical retention time of 8.58 minutes. Complete conversion is achieved by 2 hours of irradiation at 365 nm under the conditions employed.

Data set [2] concerns SW1116 and LS174T cell lines. Put plainly: Nitroreductase-activation cytotoxicity, SRB assay, 'same cell lines' (value not assigned to one line). The data set is classed as cell-based, human. Here is the method: (§1) Compound 7, synthesized according to example 1, was evaluated in two different cell lines, namely SW1116 and LS174T. Both SW1116 and LS174T are human adenocarcinoma colonic cell lines, which were grown at Charing Cross hospital. The cells, at a concentration of 2500 cells/ml, were plated in 96-well microtitre plates, and were incubated at 37° C. for 1 hour with different concentrations of the prodrug, in the presence or absence of E. coli nitroreductase-monoclonal antibody conjugate in phosphate buffer saline (available from Sigma), and NADH (the co-factor necessary for enzyme function) in DMSO. The cells were then washed and incubated for a further 3 days at 37° C. At the end of this period, the cells were fixed (TCA) and stained. The concentration of the remaining viable cells adhering to the plates was quantified by a sulforhodamine B (SRB) dye. The control sets of cells treated with the prodrug alone were used in order to evaluate the cytotoxicity of the compound prior to enzymatic activation.
In general terms: In SRB staining, fixed cells bind dye roughly in proportion to their protein.

A further data set deals with SW1116 cells. The data set can be described thus: Nitroreductase-activation cytotoxicity, SRB assay, SW1116 cells. Format: cell-based, human. Here is the method:
as §1

A further data set deals with LS174T cells. The data set can be described thus: Nitroreductase-activation cytotoxicity, SRB assay, LS174T cells. Format: cell-based, human. Here is the method: as §1
In the next data set the test system is CH1. The data set can be described thus: Ovarian cell line cytotoxicity, SRB, 96 hours. The data set is classed as cell-based. Conditions: Homo sapiens; CH1, 96 hours. Here is the method: (§2) Compounds 52 (UP 2073) and the comparative compound 55b (UP2090) were evaluated for their cytotoxic activity in ovarian cell lines by Dr Lloyd R. Kelland's group at The Institute of Cancer Research, Sutton, UK. The five cell lines investigated were SKOV-3, A2780/A2780cisR and CH1/CH1cisR (cisR denotes that the cell line is resistant to cisplatin).
(§3) Single viable cells were seeded in growth medium (160 μL) in 96-well microtitre plates and allowed to attach overnight. The test compounds were then dissolved in DMSO (to give 20 mM drug concentrations) immediately prior to adding the cells in quadruplicate wells. The final drug concentrations in the wells ranged from 100 μM to 2.5 nM as follows:100, 25, 10, 2.5, 1 μM, 250, 100, 25, 10, 2.5 nM (drugs were diluted in growth medium and then 40 μL added to the existing well volume of 160 μL to give final concentrations as above). After 96 hours, the medium was removed and the remaining cells fixed by exposure to 10% trichloroacetic acid on ice for 30 minutes. The wells were then washed 3-4 times with tap water, air dried overnight and treated with 100 μL of sulphorhodamine B (0.4%) dissolved in 1% acetic acid. Staining was allowed to continue for 10-15 minutes, then the wells were washed 3-4 times with 1% acetic acid, air dried and then added to Tris base (100 μL of 10 mM). Plates were then shaken and absorbance readings at […] were determined using a plate reader. The IC50 values were calculated from plots of concentration versus percentage absorbance (compared with 8 untreated wells).

The subject of another data set is A2780. Put plainly: Ovarian cell line cytotoxicity, SRB, 96 hours. Format: cell-based. The note with it: Homo sapiens; A2780, 96 hours. The procedure:
as §2, §3

Another data set deals with A2780cisR. The data set can be described thus: Ovarian cell line cytotoxicity, SRB, 96 hours. The data set is classed as cell-based. The procedure: as §2, §3
The test system of another data set is CH1cisR. The data set can be described thus: Ovarian cell line cytotoxicity, SRB, 96 hours. The data set is classed as cell-based. Here is the method:
as §2, §3

A further data set concerns SKOV3. Put plainly: Ovarian cell line cytotoxicity, SRB, 96 hours. The data set is classed as cell-based. Conditions: Homo sapiens, SK-OV-3; SKOV3, 96 hours. Here is the method:
as §2, §3

Where [3] appears, read: LS174T, E. coli nitroreductase-antibody conjugate + NADH, read-out: IC50 in the presence of the enzyme and co-factor.
Where [4] appears, read: irradiation time 0 hours, DMF at 1 mM initial drug concentration.
Setting [5] is: irradiation time 0 hours, DMF at 10 mM initial drug concentration.

Read-outs that look alike come from different tables or passages of the source.

As to “1,1′-[[(Propane-1,3-diyl)dioxy]bis[[2-(2,3-dimethoxy-5-nitrobenzyloxycarboxamido)]bis[(11aS)-7-methoxy-1,2,3,11a-tetrahydro-11-hydroxy-5H-pyrrolo[1,2-c][1,4]benzodiazepine-5-one [Compound 32]”, the 50% inhibitory concentration (IC50) in the data set with K562 cells (dimer series (FIG. 9), irradiation time 0 hours, footnote DMF at 1 mM, FIG. 9 legend methanol) was 4500 nM; in the data set on K562 cells (dimer series (FIG. 9), irradiation time 0.5 hours, footnote DMF at 1 mM, FIG. 9 legend methanol) it was 1900 nM; in the data set on K562 cells (dimer series (FIG. 9), irradiation time 1.0 hours, footnote DMF at 1 mM, FIG. 9 legend methanol), 1750 nM; with K562 cells (dimer series (FIG. 9), irradiation time 2.0 hours, footnote DMF at 1 mM, FIG. 9 legend methanol), 1250 nM; in the data set on K562 cells (dimer series (FIG. 9), irradiation time 5.0 hours, footnote DMF at 1 mM, FIG. 9 legend methanol), 850 nM. Moreover, in data set [1] (HPLC data (not shown)), the “irradiation time to almost complete conversion” value was no more than 2 h. Besides, in data set [1] (HPLC data (not shown), dimer prodrug experiments), the “irradiation time to complete conversion” value is no more than 5 h.
Turning to `COc1cc2c(cc1OCc1ccccc1)N(C(=O)OCc1ccc([N+](=O)[O-])cc1)C(O)[C@@H]1CCCN1C2=O` (stereo partly drawn) [Compound 7, (11aS)-8-benzyloxy-7-methoxy-1,2,3,10,11,11a-hexahydro-11-hydroxy-10-(p-nitrobenzyloxy)carboxy-5H-pyrrolo[2,1-c][1,4]-benzodiazepine-5-one], the IC50 in data set [2] (after addition of enzyme conjugate and NADH, cell line not specified, read-out: IC50 of the nitroreductase-activated prodrug) lay in the range of 1000 to 5000 nM; in the data set with SW1116 cells (SW1116, E. coli nitroreductase-antibody conjugate + NADH, read-out: IC50 in the presence of the enzyme and co-factor), 1000 to 5000 nM; in the data set on LS174T cells (setting [3]), 1000 to 5000 nM. Besides, the “difference between IC50 of parent drug and nitroreductase-activated prodrug” value in data set [2] (parent benzyl DC-81 vs activated prodrug) is recorded as 20-100 fold. The “toxicity of the prodrug alone” value in the data set on SW1116 cells (SW1116 cells, no enzyme, concentrations of up to 500 μM) is “essentially non-toxic”; in the data set on LS174T cells (LS174T cells, no enzyme, concentrations higher than 100 μM) it was “slight toxicity”.
On to `COc1cc(COC(=O)N2c3cc(OCc4ccccc4)c(OC)cc3C(=O)N3CCC[C@H]3C2O)c([N+](=O)[O-])cc1OC` (stereo partly drawn) [Compound 11, (11aS)-8-benzyloxy-7-methoxy-1,2,3,10,11,11a-hexahydro-11-hydroxy-10-(21-nitro-4′,5′-dimethoxybenzyloxy)carboxy-5H-pyrrolo[2,1-c][1,4]-benzodiazepine-5-one], for which the IC50 in the data set on K562 cells (setting [4]) worked out at 47500 nM; in the data set on K562 cells (setting [5]), 48500 nM; in the data set with K562 cells (irradiation time 0.5 hours, DMF at 1 mM initial drug concentration), 980 nM; in the data set with K562 cells (irradiation time 0.5 hours, DMF at 10 mM initial drug concentration), 4330 nM; in the data set with K562 cells (irradiation time 0.5 hours, FIG. 8: DMF at 1 mM, text says methanol), 4500 nM; in the data set with K562 cells (irradiation time 1.0 hours, DMF at 1 mM initial drug concentration), 600 nM. Further, the IC50 amounted to 2170 nM in the data set with K562 cells (irradiation time 1.0 hours, DMF at 10 mM initial drug concentration); 4000 nM with K562 cells (irradiation time 1.0 hours, FIG. 8: DMF at 1 mM, text says methanol); 600 nM with K562 cells (irradiation time 2.0 hours, DMF at 1 mM initial drug concentration); 1750 nM with K562 cells (irradiation time 2.0 hours, DMF at 10 mM initial drug concentration); 3200 nM in the data set with K562 cells (irradiation time 2.0 hours, FIG. 8: DMF at 1 mM, text says methanol). Further, the “irradiation time to complete conversion” value in data set [1] (DMF, 1 mM, 365 nm, HPLC) was no more than 2 h.
Consider `CC=C1C[C@H]2C(O)N(C(=O)OCc3ccc([N+](=O)[O-])cc3)c3cc(OCc4ccccc4)c(OC)cc3C(=O)N2C1` (stereo partly drawn) [Compound 24, (11aS)-8-benzyloxy-7-methoxy-1,3,10,11,11a-tetrahydro-2-ethylidene-11-hydroxy-10-(p-nitrobenzyloxy)carboxy-5H-pyrrolo[2,1-c][1,4]-benzodiazepine-5-one], for which the IC50 in data set [2] (Homo sapiens, after addition of enzyme conjugate and NADH, cell line not specified, read-out: IC50 of the nitroreductase-activated prodrug) is 6400 nM; in data set [2] (Homo sapiens, no enzyme, average of two experiments, cell line not specified, read-out: IC50 of prodrug alone) it was 86200 nM. Moreover, the activation factor result in data set [2] (IC50 without / with enzyme conjugate and NADH) was “approximately 13.5”.
On to `COc1cc2c(cc1OCCCOc1cc3c(cc1OC)C(=O)N1CCC[C@H]1C(O)N3C(=O)OCc1ccc([N+](=O)[O-])cc1)N(C(=O)OCc1ccc([N+](=O)[O-])cc1)C(O)[C@@H]1CCCN1C2=O` (some centres unmarked) [Compound 30], for which the half-maximal inhibitory concentration (IC50) stood at 215000 nM with LS174T cells (LS174T, no enzyme, average of two measurements, read-out: IC50 of prodrug alone) and 13700 nM in the data set with LS174T cells (setting [3]). For the same compound, in the data set with LS174T cells (LS174T, IC50 without / with enzyme and co-factor), the activation factor was 15-16 fold.
As for `COc1cc2c(cc1OCCCOc1cc3c(cc1OC)C(=O)N1CCC[C@H]1C=N3)N=C[C@@H]1CCCN1C2=O` [DSB-120, reference compound], the IC50 is 550 nM in the data set with K562 cells (Homo sapiens, K562, light or radiation study, dimer series (FIG. 9), irradiation time 0 hours, footnote DMF at 1 mM, FIG. 9 legend methanol) and 0.5 nM in the data set with LS174T cells (Homo sapiens, LS174T, read-out: cytotoxicity (IC50) of the parent agent).
For `COc1cc2c(cc1OC)C(=O)N1CCC[C@H]1C=N2` [UP2025], the IC50 in the data set on CH1 was 82 nM; in the data set on A2780, 64 nM; in the data set on A2780cisR (Homo sapiens, A2780cisR (cisplatin resistant), 96 hours), 155 nM; in the data set on CH1cisR (Homo sapiens, CH1cisR (cisplatin resistant), 96 hours) it was 110 nM; with SKOV3, 1700 nM. In addition, the “RF (resistance factor)” value turned out to be 2.4 in the data set with A2780cisR (A2780cisR divided by A2780) and 1.3 in the data set with CH1cisR (CH1cisR divided by CH1).
Regarding `COc1cc2c(cc1OCc1ccccc1)N=C[C@@H]1CCCN1C2=O` [benzyl DC-81, reference compound], the IC50 with K562 cells (setting [4]) is 500 nM; with K562 cells (setting [5]), 500 nM; with K562 cells (irradiation time 0 hours, FIG. 8: DMF at 1 mM, text says methanol) it was 500 nM; in [2] (same cell lines, same conditions, read-out: IC50 of the parent drug), 8 nM.
